From publication PMC9890698 (BMC Biology, 2023)
Several values for one entry are separate records, joined by “and”; a condition that tells them apart may be missing. Identical values can stand only once.

Tests used:
Human P2Y1-R [1] = molecular target: T1, Human P2Y1-R (Homo sapiens, UniProt P47900); test: Gαq protein activation BRET2 assay (Gαq-RLuc8/GFP2-Gγ2/Gβ1) in HEK293T cells expressing P2Y1-R; type: cell-based; details: Fig. S2a, P2Y1-R, individual replicates
T1 construct: expressed in transfected cells; host or cells: HEK293T/17
T1 sequence (P47900 whole entry): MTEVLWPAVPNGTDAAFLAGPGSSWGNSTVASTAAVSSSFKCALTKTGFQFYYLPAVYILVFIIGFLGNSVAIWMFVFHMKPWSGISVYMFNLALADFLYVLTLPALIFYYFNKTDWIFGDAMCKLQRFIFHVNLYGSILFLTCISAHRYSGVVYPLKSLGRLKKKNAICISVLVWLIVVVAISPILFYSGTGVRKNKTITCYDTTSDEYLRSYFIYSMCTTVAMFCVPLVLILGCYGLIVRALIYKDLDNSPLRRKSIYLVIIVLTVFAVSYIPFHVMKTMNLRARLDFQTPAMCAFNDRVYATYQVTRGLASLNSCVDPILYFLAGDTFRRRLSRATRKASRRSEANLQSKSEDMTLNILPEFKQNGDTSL
Description: (§1) As previously described, using a BRET^2 (bioluminescence resonance energy transfer)-based assay, we directly monitored the basal Gαq protein activation by measuring the interaction between Gαq and Gγ2 subunits of the Gαqβ1γ2 heterotrimer complex. Indeed, this assay is based on the non-radiative transfer between the Renilla reniformis luciferase (RLuc8) energy donor fused to the Gαq protein subunit and the fluorescent GFP2 energy acceptor fused to Gγ2 protein subunit (Fig. 1a). […] By contrast, ligand-independent constitutive receptor activation or agonist-induced receptor activation will promote Gαq/Gγ2 subunit dissociation, thereby leading to a decrease of the basal BRET signal (Fig. 1a). […] To preclude any P2Y1-R activation by a passive release of ADP by HEK293T cells, we performed similar experiments in the presence of high concentration of apyrase (0.2U/mL) to degrade any trace of ADP in the medium (Additional File 2: Fig. S2a). Under these conditions, P2Y1-R expression still induces a marked and significant decrease of the basal BRET signal compared to control cells (pcDNA3.1), thereby supporting a P2Y1-R-dependent constitutive activation of Gαq protein. […] Of note, because P2Y1-R and AT1-R were respectively Myc- and HA-tagged and were thus detected using different primary antibodies, their expression at the cell surface cannot be compared between each other’s.
(§2) Human P2Y1-R (NCBI Reference Sequence: NM_002563.2) and P2Y12-R (NCBI Reference Sequence: NM_022788.3) were fused to double Myc epitope and rat AT1-R (NCBI Reference Sequence: NM_030985.4) to HA tag in N-terminus extracellular region. Alternatively, receptors were also fused to Venus tag in C-terminus intracellular region. Plasmids encoding Gαq-RLuc8, GFP2-Gγ2 and untagged Gβ1 were previously described. ADP was purchased from Sigma-Aldrich/Merck (Darmstadt, Germany). […] The Gq inhibitor (FR900359) was kindly supplied by Evi Kostenis (University of Bonn. Germany).
G protein activation and β-arrestin 2 recruitment were performed as previously described. Briefly, vectors encoding receptors, Gαq-RLuc8, GFP2-Gγ2, Gβ1, or β-arrestin 2 were transiently cotransfected into HEK293T/17 cells as indicated in the figure legends. Forty-eight hours after transfection, cells were washed and resuspended in PBS containing 0.1% (w/v) glucose at room temperature and then distributed (80 μg proteins/well) in a 96-well microplate (PerkinElmer). For G protein activation experiments (BRET^2), cells were incubated in the absence (basal BRET signal) or in the presence of ligand for 1 minute. BRET signal between RLuc8 and GFP2 was measured after addition of the luciferase substrate coelenterazine 400a (5 μM). For β-arrestin 2 recruitment (BRET^1), cells were stimulated with ligands for 5 or 15 min. BRET signal was recorded after incubation with coelenterazine h (5 μM) for 8 min. For kinetics studies, BRET signal between RLuc and Venus was recorded at 20-s intervals at basal state for the 2 first minutes and then for 5 min after ligand injection. For saturation curves (BRET^1), the expression level of Venus- or RLuc-tagged protein was determined by direct measurement of total fluorescence and luminescence respectively. Total fluorescence was first measured with an excitation filter at 485 nm and an emission filter at 520 nm. Then, the same sample was incubated for 8 minutes with 5 μM coelenterazine h and the total luminescence was measured. BRET^2 and BRET^1 readings were collected using a modified Infinite F500 (Tecan Group Ltd). The BRET^2 signal was calculated by the ratio of emission of GFP2 (510–540 nm) to RLuc8 (370–450 nm) and the BRET^1 signal by the ratio of emission of Venus (520–570 nm) to RLuc (370–480 nm). […]

[2] = system: Gαq protein in HEK293T cells (pcDNA3.1); test: Gαq protein activation BRET2 assay in control HEK293T cells without receptor (pcDNA3.1 / 0 μg); type: cell-based, Human; details: Fig. S2a, pcDNA3.1, individual replicates
Description: as §1
G protein activation and β-arrestin 2 recruitment were performed as previously described. […] BRET signal between RLuc8 and GFP2 was measured after addition of the luciferase substrate coelenterazine 400a (5 μM). […] BRET signal was recorded after incubation with coelenterazine h (5 μM) for 8 min. For kinetics studies, BRET signal between RLuc and Venus was recorded at 20-s intervals at basal state for the 2 first minutes and then for 5 min after ligand injection. For saturation curves (BRET^1), the expression level of Venus- or RLuc-tagged protein was determined by direct measurement of total fluorescence and luminescence respectively. Total fluorescence was first measured with an excitation filter at 485 nm and an emission filter at 520 nm. Then, the same sample was incubated for 8 minutes with 5 μM coelenterazine h and the total luminescence was measured. BRET^2 and BRET^1 readings were collected using a modified Infinite F500 (Tecan Group Ltd). The BRET^2 signal was calculated by the ratio of emission of GFP2 (510–540 nm) to RLuc8 (370–450 nm) and the BRET^1 signal by the ratio of emission of Venus (520–570 nm) to RLuc (370–480 nm). Sometimes, results are expressed as the Net BRET computed by deducting the BRET background signal (obtained in the presence of the energy donor alone) from the BRET signal (acquired from cells expressing both the energy donor and acceptor).

Human P2Y1-R [3] = molecular target: T1, Human P2Y1-R; test: β-arrestin 2 recruitment BRET1 assay (β-arrestin 2-RLuc / P2Y1-R-Venus) in HEK293T cells; type: cell-based; details: Fig. S5; P2Y1-R; (+) apyrase; individual replicates
Description: (§3) We assessed β-arrestin 2 recruitment to the receptor using BRET^1 assay. The assay measures the interaction between β-arrestin 2 fused to the Renilla reniformis luciferase (RLuc) energy donor and the receptor fused to fluorescent Venus energy acceptor (Fig. 3a). The recruitment of cytosolic β-arrestin 2 to the receptor at the plasma membrane in the presence of an agonist will promote a significant increase of the BRET signal compared to the basal state, reflecting the close proximity between the β-arrestin 2 energy donor and the receptor energy acceptor [22].
as §2
G protein activation and β-arrestin 2 recruitment were performed as previously described. Briefly, vectors encoding receptors, Gαq-RLuc8, GFP2-Gγ2, Gβ1, or β-arrestin 2 were transiently cotransfected into HEK293T/17 cells as indicated in the figure legends. Forty-eight hours after transfection, cells were washed and resuspended in PBS containing 0.1% (w/v) glucose at room temperature and then distributed (80 μg proteins/well) in a 96-well microplate (PerkinElmer). For G protein activation experiments (BRET^2), cells were incubated in the absence (basal BRET signal) or in the presence of ligand for 1 minute. BRET signal between RLuc8 and GFP2 was measured after addition of the luciferase substrate coelenterazine 400a (5 μM). For β-arrestin 2 recruitment (BRET^1), cells were stimulated with ligands for 5 or 15 min. BRET signal was recorded after incubation with coelenterazine h (5 μM) for 8 min. For kinetics studies, BRET signal between RLuc and Venus was recorded at 20-s intervals at basal state for the 2 first minutes and then for 5 min after ligand injection. For saturation curves (BRET^1), the expression level of Venus- or RLuc-tagged protein was determined by direct measurement of total fluorescence and luminescence respectively. Total fluorescence was first measured with an excitation filter at 485 nm and an emission filter at 520 nm. Then, the same sample was incubated for 8 minutes with 5 μM coelenterazine h and the total luminescence was measured. BRET^2 and BRET^1 readings were collected using a modified Infinite F500 (Tecan Group Ltd). The BRET^2 signal was calculated by the ratio of emission of GFP2 (510–540 nm) to RLuc8 (370–450 nm) and the BRET^1 signal by the ratio of emission of Venus (520–570 nm) to RLuc (370–480 nm). Sometimes, results are expressed as the Net BRET computed by deducting the BRET background signal (obtained in the presence of the energy donor alone) from the BRET signal (acquired from cells expressing both the energy donor and acceptor).

Human P2Y12-R = molecular target: T2, Human P2Y12-R (Homo sapiens, UniProt Q9H244); test: β-arrestin 2 recruitment BRET1 assay (β-arrestin 2-RLuc / P2Y12-R-Venus) in HEK293T cells; type: cell-based; details: Fig. S5; P2Y12-R; (+) apyrase; individual replicates
T2 construct: expressed in transfected cells; host or cells: HEK293T/17
T2 sequence (Q9H244 whole entry): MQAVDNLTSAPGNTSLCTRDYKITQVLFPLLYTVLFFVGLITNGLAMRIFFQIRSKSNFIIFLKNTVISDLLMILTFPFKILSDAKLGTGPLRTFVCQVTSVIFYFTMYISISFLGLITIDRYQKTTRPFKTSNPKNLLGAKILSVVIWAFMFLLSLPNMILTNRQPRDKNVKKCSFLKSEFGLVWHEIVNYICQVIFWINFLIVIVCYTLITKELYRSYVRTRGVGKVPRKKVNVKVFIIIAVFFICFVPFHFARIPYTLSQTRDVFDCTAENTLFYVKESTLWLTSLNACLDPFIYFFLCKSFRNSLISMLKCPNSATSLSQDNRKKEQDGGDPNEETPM
Description: as §3, with “[22]. […]” for “[22].”
G protein activation and β-arrestin 2 recruitment were performed as previously described. […] BRET signal between RLuc8 and GFP2 was measured after addition of the luciferase substrate coelenterazine 400a (5 μM). […] BRET signal was recorded after incubation with coelenterazine h (5 μM) for 8 min. For kinetics studies, BRET signal between RLuc and Venus was recorded at 20-s intervals at basal state for the 2 first minutes and then for 5 min after ligand injection. For saturation curves (BRET^1), the expression level of Venus- or RLuc-tagged protein was determined by direct measurement of total fluorescence and luminescence respectively. Total fluorescence was first measured with an excitation filter at 485 nm and an emission filter at 520 nm. […] BRET^2 and BRET^1 readings were collected using a modified Infinite F500 (Tecan Group Ltd). […]

HEK293T cells (pcDNA3.1) = test: β-arrestin 2 BRET1 basal signal in control HEK293T cells without receptor (pcDNA3.1); type: cell-based, Human; details: Fig. S5, (+) apyrase, individual replicates
Description: Supplement 12915_2023_1528_MOESM8_ESM.xlsx, sheet "Fig. S5" | column: (+) apyrase

Basal BRET signal (Human P2Y1-R [1]; (+) apyrase 1 min): 0.9128 and 0.7477 and 0.6192 and 0.8378
Basal BRET signal (Human P2Y1-R [1]; (+) apyrase 5 min): 0.6209 and 0.8174 and 0.9018 and 0.7551
Basal BRET signal (Human P2Y1-R [1]; (+) apyrase 10 min): 0.6295 and 0.8302 and 0.9025 and 0.7259
Basal BRET signal (Human P2Y1-R [3]): 0.9766 and 1.039 and 0.9705 and 1.011
Basal BRET signal (Human P2Y12-R): 0.9157 and 0.9699 and 0.8998 and 0.9124
Substance: apyrase
Basal BRET signal ([2]; (+) apyrase 1 min): 2.035 and 1.852 and 1.218 and 1.795
Basal BRET signal ([2]; (+) apyrase 5 min): 1.227 and 1.746 and 2.0243 and 1.801
Basal BRET signal ([2]; (+) apyrase 10 min): 1.204 and 1.749 and 1.987 and 1.796
Basal BRET signal (HEK293T cells (pcDNA3.1)): 0.8767 and 0.9382 and 0.883 and 0.8696
